Test results taken from patent US20150051296A1, “USE OF FATTY ACID TO REDUCE SKIN IRRITATION ASSOCIATED WITH RETINOID THERAPY” (Access Business Group Internaional LLC, priority 2013, published 2015).

Tests used:
[1] = system: peroxisome proliferator activated receptor (PPAR); experiment: PPAR luciferase reporter assay in stably transfected Chinese hamster ovary cells; assay type: cell-based; conditions: about 0 to about 100 μg/mL, FIG. 5
Experimental: Chinese hamster ovary cells were stably transfected with peroxisome proliferator activated receptor (PPAR) construct and luciferase reporter vector. […] The response was measured in relative light units (RLUs).

[2] = system: retinoic acid response element (RARE) construct; experiment: RARE reporter assay in stably transfected human kidney cells; assay type: cell-based; conditions: oleic acid about 0, 25, 50, 100, 200 μM, FIG. 3
Experimental: Human kidney cells were stably transfected with a retinoic acid response element (RARE) construct. The transfected cells were exposed to increasing amounts of retinoic acid (from about 0.005 μM to about 10 μM) in the presence of increasing amounts of oleic acid (about 0 μM, about 25 μM, about 50 μM, about 100 μM, and about 200 μM), and the response was measured in relative light units (RLUs).

## CCCCCCCC/C=C\CCCCCCCC(=O)O [oleic acid]
[1]
  response (RLUs) of PPAR-transfected cells: responded in a dose dependent manner
[2]
  effect of the fatty acid on retinoic acid activation of the retinoic acid receptor: did not affect retinoic acid activation of the retinoic acid receptor
